For orientation: Cmax means the peak of the concentration-time curve. One may read the half-life as the time needed for the level to fall by half in the phase considered. A lower half-life goes with fast loss. The AUC is concentration integrated over time. For orientation: EC50 means the concentration giving half of the maximal effect. The Kd is the constant that tells how readily two partners part at equilibrium. Broadly, the logD is the decadic logarithm of the distribution of all forms, ionised or not, between an organic phase and buffer at a given pH. A low value points to a more hydrophilic compound.

We go through one compound from patent US20230203025A1, “ENHANCERS OF PARTICULATE GUANYLYL CYCLASE RECEPTOR A” (Mayo Foundation for Medical Education and Research, priority 2020, published 2023).

SMILES strings stand for the structures.

Series [1] relates to primary human cardiomyocytes (HCMs). In words: cGMP generation in primary human cardiomyocytes. The format is cell-based.
Series [2] in a line: pharmacokinetics after IV and PO dosing. The format is in vivo, mouse. Particulars: plasma.
Series [3] has as its system human visceral adipocytes. In words: browning and glycerol production in human visceral adipocytes. The format is cell-based.
In another series the target is T1, pGC-A (Homo sapiens, UniProt P16066).
T1 construct: expressed in transfected cells; host or cells: HEK293
T1 sequence (P16066 33-1061): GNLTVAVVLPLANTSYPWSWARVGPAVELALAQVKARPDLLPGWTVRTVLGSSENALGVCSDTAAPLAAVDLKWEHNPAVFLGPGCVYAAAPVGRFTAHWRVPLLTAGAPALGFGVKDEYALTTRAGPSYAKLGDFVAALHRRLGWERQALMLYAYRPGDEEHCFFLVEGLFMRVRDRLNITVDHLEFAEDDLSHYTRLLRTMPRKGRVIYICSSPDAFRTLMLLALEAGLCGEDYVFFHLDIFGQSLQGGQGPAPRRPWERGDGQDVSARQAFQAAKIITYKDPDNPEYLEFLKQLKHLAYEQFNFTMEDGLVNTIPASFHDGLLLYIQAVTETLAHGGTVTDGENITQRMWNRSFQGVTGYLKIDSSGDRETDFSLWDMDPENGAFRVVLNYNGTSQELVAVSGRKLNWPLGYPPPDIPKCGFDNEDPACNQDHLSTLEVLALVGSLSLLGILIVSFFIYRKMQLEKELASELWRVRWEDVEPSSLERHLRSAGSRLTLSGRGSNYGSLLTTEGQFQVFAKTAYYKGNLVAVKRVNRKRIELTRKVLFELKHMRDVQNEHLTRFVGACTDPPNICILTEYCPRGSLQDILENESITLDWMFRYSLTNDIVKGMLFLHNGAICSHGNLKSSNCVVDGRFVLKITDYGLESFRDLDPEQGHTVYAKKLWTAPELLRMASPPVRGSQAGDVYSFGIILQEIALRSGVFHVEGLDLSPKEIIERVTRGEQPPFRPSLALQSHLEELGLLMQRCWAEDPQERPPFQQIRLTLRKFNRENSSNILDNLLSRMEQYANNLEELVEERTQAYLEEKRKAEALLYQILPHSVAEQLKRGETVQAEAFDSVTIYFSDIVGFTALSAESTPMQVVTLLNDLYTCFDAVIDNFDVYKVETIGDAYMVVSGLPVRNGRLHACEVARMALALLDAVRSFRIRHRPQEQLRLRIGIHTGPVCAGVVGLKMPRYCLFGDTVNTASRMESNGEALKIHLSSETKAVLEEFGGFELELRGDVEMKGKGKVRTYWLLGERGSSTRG
T1 sequence (P01160 124-151 partner limits assumed): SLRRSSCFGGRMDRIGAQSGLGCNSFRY
In words: cGMP production by HTRF in HEK293 cells overexpressing pGC-A. Type of series: cell-based. As to the method: Assay details: 20 nL of 10 μM test compound in DMSO was added to columns 5-48 of 1536 well white high base screening plates (Corning, New York, N.Y.) cells using 550 ECHO acoustic dispenser (Labcyte, San Jose, Calif.). […] HEK293 cells overexpressing GC-A were resuspended in assay media (OptimMem media containing 2% Heat-inactivated Fetal bovine serum and L-glutamine) at a density of 6×10^5 cells/mL and 2 μL were plated in screening plates (1200 cells/well) in suspension using a Bioraptr 2. Plates were spun at 1000 rpm for 1 min and incubated for 30 min at room temperature. 1.5 μL d2-labled cGMP followed by 1.5 uL Eu^3+ cryptate-labeled anti-cGMP cGMP detection kit (CiBio; #62GM2PEC) prepared according to manufacturer's protocol were added to all wells using a Bioraptr 2 and TR-FRET signal was detected on an EnVision detector (PerkinElmer).
On the technique in general: In TR-FRET formats the signal depends on donor and acceptor labels being close together.

The next series in a line: plasma stability, human. Type of series: in vitro ADME.
Series [4] can be described thus: hepatic microsomal stability, mouse. The format is in vitro ADME.
For series [5], the system named is primary human adipocytes (HAs; visceral and subcutaneous). In words: cGMP generation in primary human adipocytes (visceral and subcutaneous). The format is cell-based.
In series [6] the test system is primary human renal proximal tubular cells (HRPTCs). In words: cGMP generation in primary human renal proximal tubular cells. The format is cell-based. The text has this:
HRPTCs represent an important human cell line as renal tubular injury and apoptosis leads to impaired renal function and structure.

The target of series [7] is T2, extracellular domain human GC-A recombinant protein (Homo sapiens, UniProt P16066).
T2 construct: extracellular domain human GC-A recombinant protein; purchased MyBioSource, Inc
T2 sequence (P16066 33-473 limits assumed): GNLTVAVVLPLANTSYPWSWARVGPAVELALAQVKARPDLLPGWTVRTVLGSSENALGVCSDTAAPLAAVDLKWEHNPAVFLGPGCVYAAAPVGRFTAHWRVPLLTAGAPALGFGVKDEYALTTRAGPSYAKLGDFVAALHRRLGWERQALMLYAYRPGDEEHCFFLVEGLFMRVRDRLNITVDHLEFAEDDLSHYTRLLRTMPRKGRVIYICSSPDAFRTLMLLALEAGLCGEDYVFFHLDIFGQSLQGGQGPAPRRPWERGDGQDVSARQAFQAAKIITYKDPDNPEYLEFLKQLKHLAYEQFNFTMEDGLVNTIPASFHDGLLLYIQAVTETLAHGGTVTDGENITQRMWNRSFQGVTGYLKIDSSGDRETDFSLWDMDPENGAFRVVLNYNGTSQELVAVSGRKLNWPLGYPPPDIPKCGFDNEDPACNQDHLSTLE
Briefly: SPR GC-A binding studies (Example 7). Particulars: Compound 19 alone, His-tagged GC-A on Ni-NTA chip. As to the method: Methods (GC-A Binding Studies): Surface plasmon resonance (SPR) measurements were performed at 25° C. on a BI-4500 SPR instrument (Biosensing Instrument Inc. Tempe AZ). […] Data was collected as sensorgrams. Binding kinetics were derived from sensorgrams using BI-Data Analysis Program (Biosensing Instrument, Tempe Ariz.).

Another series can be described thus: LogD. Type of series: physicochemical. The conditions noted are these: pH 7.4.

For `CN(C)CCN1CCCC(C(=O)Nc2nc3c(F)cc(F)cc3s2)C1` (stereo not drawn) [Compound 19], the cGMP generation entry was “clear increase in cGMP generation” in [1] (HCMs, 1, 5 or 10 μM compound in the presence of ANP (10^−10 M)); “did not generate cGMP generation” in series [1] (HCMs, compound alone at similar dose, no ANP); “clear increase in cGMP generation” in series [5] (HAs, 1, 5 and 10 μM compound in the presence of ANP (10^−10 M)); “did not generate cGMP generation” in [5] (HAs, compound alone at similar dose, no ANP); “clear increase in cGMP generation” in [6] (HRPTCs, 1, 5 or 10 μM compound in the presence of ANP (10^−10 M)); “did not generate cGMP generation” in [6] (HRPTCs, compound alone at similar dose, no ANP). In addition, in series [2] (Mean IV, mouse, 5 mg/kg), the clearance worked out at 20.3 mL/min/kg. In addition, in series [2] (Mean IV, mouse, 5 mg/kg, read-out: Vdss), the Vd was determined as 16.8 L/kg. This compound also came in with a peak concentration (Cmax) in [2] (Mean PO, Mouse, 10 mg/kg) of 605 ng/mL. In series [2] (Mean PO, Mouse, 10 mg/kg), the half-life is 9.13 h. For the same compound, the AUC in series [2] (Mean PO, Mouse, 10 mg/kg, read-out: Exposure (AUC)) was 7100 ng·h/mL. In addition, the bioavailability in series [2] (Mouse, PO 10 mg/kg vs IV 5 mg/kg) came out at 107%. The “expression of the browning protein UCP1” value in series [3] (compound 19 added to ANP) was “augmented UCPI expression”. For the same compound, the “ANP induction of glycerol” value in series [3] (compound 19 with ANP, not illustrated) is “dose dependently increased”. At pGC-A (HEK293, cGMP normalized to maximal amount produced by an EC80 concentration of ANP, read-out: Max efficacy), the Emax worked out at 82%. The EC50 on pGC-A (HEK293 pGC-A cells, cGMP HTRF, in the presence of EC20 concentration of ANP) worked out at 390 nM. For the same compound, the “cGMP activity in cells expressing pGC-A” value at pGC-A (in the absence of ANP) is given as “devoid of cGMP activity”. Also, the “Plasma Stability (% remaining at 1 h)” value in “plasma stability, human” was determined as 107.4%. Also, the “Hepatic Microsomal Stability (% remaining at 1 h)” value in [4] turned out to be 83.6%. Moreover, the equilibrium dissociation constant (Kd) in series [7] is 390 nM. The compound further had a logD in the series “LogD” of 3.04.
